Each block holds one molecule with its values, some of them ahead of it.
Key:
TC28 cells [1] = assay: Cell viability by LDH release in stressor-exposed chondrocytes; type: cell-based; details: for cell viability (LDH release) under SIN-1 / cell viability under NOC-12 / cell viability of cells exposed to SIN-1 or NOC-12: compound 1 μM; for cell viability (LDH release) under SIN-1: 100 μM SIN-1; for cell viability under NOC-12: NOC-12 (250 μM)
Protocol: (§1) This example describes screening assays using defined chondrocyte functions, for identifying agents that protect chondrocytes from mitochondrial stressors, such as energy depletion or reactive free radicals. Chondrocytic TC28 cells were maintained at 37° C., 5% CO2 in monolayer culture in DMEM/Ham's F12 medium (1:1) supplemented with 10% FCS, 1% L-glutamine, 100 U/ml penicillin and […] streptomycin (Omega Scientific, Tarzana, Calif.). To more closely approximate the in vivo physiologic nonadherent state of chondrocytes for monitoring GAG release (FIG. 10), an in vitro culture system was used wherein TC28 cells were transferred to 6-well plates that had been previously coated for 18 hours at 22° C. with the cell adhesion inhibitor poly-2-hydroxymethacrylate (polyHEMA), provided as a 10% (w/v) solution in 95% ethanol, then washed twice with PBS. Complete medium (DMEM/F12 supplemented as described above) was then added to wells, and cells were maintained under these conditions for up to 72 hours (Folkman et al., 1978 Nature 273:345; Reginato et al., 1994 Arthritis Rheum. 37:1338). Maintenance of chondrocyte phenotype was confirmed by RT-PCR determination of gene transcripts encoding the chondrocyte extracellular matrix components type II collagen and aggrecan (Reginato et al., 1994).
Cells were exposed to one of several agonists added to cultures as stressors for 72 hours, in the absence or presence of candidate chondrocyte protective agents (listed in Table 2). According to non-limiting theory, such stressors may act as one or more of a mitochondrial inhibitor, an inducer of altered mitochondrial function, an apoptogen, an energy-depleting agent, or the like. Stressors used in this example included the […] NOC-12 (N-ethyl-2-(1-ethyl-2-hydroxy-2-nitrosohydrazino)ethanamine; Calbiochem, La Jolla, Calif.); the peroxynitrite donor SIN-1 (3-morpholinosydnonimine, HCl; Calbiochem); and the inflammatory cytokine human recombinant interleukin-1 beta (IL-1β, Calbiochem). Cytotoxicity was determined using the lactate dehydrogenase release assay (Promega, Madison, Wis.) as described above and according to the manufacturer's instructions, and chondrocyte intracellular ATP was determined using the luciferase assay as described above in Example 1.

TC28 cells [2] = assay: GAG release, dimethylene blue dye binding; type: cell-based; details: for GAG release caused by stressor: TC28 nodules, SIN-1 100 μM, NOC-12 25 μM, IL-1β
Protocol: as §1
Glycosaminoglycan (GAG) release is widely believed to be a cardinal event in the pathogenesis of osteoarthritis, and is stimulated by IL-1β (see, e.g., Sztrolovics et al., 1999 Biochem. J. 339:571 and references cited therein). Therefore, GAG release was determined in chondrocytes maintained on polyHEMA-coated plates as follows: Chondrocyte cartilage “nodules” from the polyHEMA cultures were digested for one hour with papain, 300 μg/ml in 20 mM sodium phosphate-pH 6.8, 1 mM EDTA, 2 mM dithiothreitol. Released GAG was assayed colorimetrically by dimethylene blue (DMB) dye binding according to established procedures (Farndale et al., 1986 Biochim. Biophys. Acta 883:173; Sztrolovics et al., 1999 Biochem. J. 339:571). Briefly, aliquots of the papain digest were added to a dye solution containing 46 μM DMB, 40 mM glycine-pH 3.0, 40 mM NaCl and read immediately in a spectrophotometer at 525 nm. Quantification of GAG in the samples was achieved from calculations using a standard curve generated with samples of 1–50 μg/ml chondroitin sulfate. Mitochondrial protecting agents based on derivatized creatine, ethoxyquin and guanidine compounds were synthesized essentially as disclosed in WO99/37294 (PCT/US99/01718) and WO99/55321 (PCT/US99/09990), which are hereby incorporated by reference in their entireties; these agents were tested as representative candidate chondrocyte protective agents.

TC28 cells [3] = assay: Intracellular ATP, luciferase assay; type: cell-based; details: for intracellular ATP levels relative to control culture not exposed to NOC-12: NOC-12 alone or in the presence of 1 μM compound
Protocol: (§2) Levels of total cellular ATP were measured by a modification of luciferase-based assays known in the art (Lin et al., Anal. Biochem. 24:531–540, 1968); related assays and modifications may alternatively be used (see, e.g., Turman et al., In Vitro Cell. Dev. Biol. Anim. 32:1–4, 1996, for an assay format that uses a fluorescent plate reader). In brief, 2×10^6 cells were washed and pelleted in 10 ml phosphate-buffered saline (PBS). The cell pellets were snap-frozen in a dry ice/ethanol bath, after which […] of 0.2 M HCl was added, followed by 0.3 ml of 2 mM glycine (pH 9.0). Samples were heated at 100° C. for five minutes, then placed on ice. A standard curve was developed using 0 to 500 pmol of purified ATP (disodium salt). One hundred (100) μl of the cell extract, or purified ATP standard, was added to an equal volume of the ATP assay mixture (containing MgSO4, DTT, EDTA, luciferase and luciferin, all from the Sigma Bioluminescence Assay Kit and all diluted 1:25). Following a 5 second incubation and 15 second integration, samples were read on a TD-20/20 Luminometer (Turner Designs, Sunnyvale, Calif.).

[4] = system: articular chondrocytes and TC28 cells; assay: Intracellular ATP, statements covering both cell preparations; type: cell-based, human; details: for intracellular ATP levels (qualitative): SIN-1 500 μM, NOC-12 250 μM, antimycin A and oligomycin concentration not stated
Protocol: as §2
In FIG. 1A, articular chondrocytes or TC28 cells (5×10^5) in 5 ml were studied in triplicate in the presence of antimycin (or oligomycin, see next Example) at the indicated concentrations, administered every 24 hours for a total of 72 hours, and total intracellular ATP concentrations were determined as described above. Viability determinations are shown in FIG. 1B, where 2×10^4 chondrocytes or TC28 cells in 0.2 ml were cultured in triplicate in the presence of antimycin (or oligomycin) at the indicated concentrations, administered every 24 hours for a total of 72 hours, and cell viability was determined by trypan blue dye exclusion (>200 cells counted for each replicate).

[5] = system: articular chondrocytes and TC28 cells; assay: Oxygen consumption with a Clark electrode (respiratory rate); type: cell-based, human; details: SIN-1 500 μM; NOC-12 250 μM; antimycin A and oligomycin concentration not stated
Articular Chondrocytes = assay: Intracellular ATP, luciferase assay; type: cell-based, human; details: 10 ng/ml TGFβ, 0.025 mM antimycin A, 0.02 μg/ml oligomycin; mean ± SD
Protocol: Human articular cartilage chondrocytes were obtained by collagenase digestion of articular cartilage samples, and subsequent monolayer culture, essentially as described by Terkeltaub et al. (Arthritis Rheum. 41:2152–2164, 1998). The starting material for these primary cultures was human articular cartilage excised during surgical joint replacement, or obtained at autopsy from normal or osteoarthritic joints. The articular chondrocytes were grown in Dulbecco's modified Eagle's Medium with high glucose (DMEM high glucose, Life Technologies, Inc. Grand Island, N.Y.) with 10% fetal calf serum (FCS), 1% glutamine, 100 U/ml penicillin and 50 μg/ml streptomycin (all reagents from Sigma, St. Louis, Mo., unless otherwise noted). Typically, only first passage cells were used in the studies described herein.
as §2, with “Calif.). […]” for “Calif.).”

Molecule: Cc1cc(O)ccc1NC(=N)N [A]
cell viability (LDH release) under SIN-1 (TC28 cells [1]): protective effect on cell viability | cell viability under NOC-12 (TC28 cells [1]): moderating effect of the test compounds on NO cytotoxicity

Molecule: N=C1NCCN1CC(=O)O [B]
cell viability (LDH release) under SIN-1 (TC28 cells [1]): protective effect on cell viability | cell viability under NOC-12 (TC28 cells [1]): moderating effect of the test compounds on NO cytotoxicity

Molecule: CN(CC(=O)O)C(=N)N [C]
cell viability (LDH release) under SIN-1 (TC28 cells [1]): protective effect on cell viability | cell viability under NOC-12 (TC28 cells [1]): moderating effect of the test compounds on NO cytotoxicity | GAG release induced by SIN-1 or NOC-12 (TC28 cells [2]; SIN-1 (100 μM) or NOC-12 (25 μM), 1 μM compound, not shown): the severity of this release was moderated | IL-1β-stimulated GAG release (TC28 cells [2]; TC28 nodules on polyHEMA-coated plates): somewhat attenuated the degree of GAG release

Molecule: N=C(N)Nc1ccc(N2CCOCC2)cc1 [E]
cell viability under NOC-12 (TC28 cells [1]): significantly higher viability | intracellular ATP levels relative to control culture not exposed to NOC-12 (TC28 cells [3]): significant depression of intracellular ATP

Molecule: CC(=N)NNCC1(C)CCc2c(C)c(O)c(C)c(C)c2O1 (centres unmarked) [J]
cell viability of cells exposed to SIN-1 or NOC-12 (TC28 cells [1]): demonstrated chondrocyte protective activity

Molecule: CN(C)c1cc(C(C)(C)c2ccc(O)c(N(C)C)c2)ccc1O [K]
cell viability of cells exposed to SIN-1 or NOC-12 (TC28 cells [1]): demonstrated chondrocyte protective activity

Molecule: CC(C)(c1ccc(O)cc1)c1ccc(O)c(N)c1 [L]
cell viability of cells exposed to SIN-1 or NOC-12 (TC28 cells [1]): demonstrated chondrocyte protective activity

Molecule: CCNCCN(CC)N(O)N=O [NOC-12, N-ethyl-2-(1-ethyl-2-hydroxy-2-nitrosohydrazino)ethanamine]
intracellular ATP levels (qualitative) [4]: depressed intracellular ATP levels | respiratory rates [5]: markedly inhibited respiratory rates | GAG release caused by stressor (TC28 cells [2]): also released GAG | intracellular ATP levels relative to control culture not exposed to NOC-12 (TC28 cells [3]): significant depression of intracellular ATP

Molecule: Nc1c[n+](N2CCOCC2)no1.[Cl-] [SIN-1, 3-morpholinosydnonimine, HCl]
intracellular ATP levels (qualitative) [4]: depressed intracellular ATP levels | respiratory rates [5]: markedly inhibited respiratory rates | GAG release caused by stressor (TC28 cells [2]): also released GAG

Molecule: IL-1β: inflammatory cytokine human recombinant interleukin-1 beta
effect of stressor on viability (TC28 cells [1]; TC28 cells): did not cause a decrease | GAG release caused by stressor (TC28 cells [2]): IL-1β-stimulated GAG release | effect of stressor on intracellular ATP levels (TC28 cells [3]; TC28 cells): did not cause a decrease in intracellular ATP levels

ATP (pmoles/μg DNA): Articular Chondrocytes (Articular Chondrocytes): 1,158 ± 6.9 pmoles/μg DNA
Molecule: TGFβ
increase of intracellular ATP ([4]; chondrocytes, assessed 72 hours after treatment): about 3 fold | ATP (pmoles/μg DNA):TC28 cells (TC28 cells [3]; 10 ng/ml TGFβ, 0.025 mM antimycin A, 0.02 μg/ml oligomycin, mean ± SD): 801.6 ± 4.9 pmoles/μg DNA
